Assay results from patent publication US20050113450A1, “Antibacterial agents” (priority 2002, published 2005).
≈ marks a conversion by molar mass, not a printed value.

system: SA 9218; assay: MIC by standard agar dilution method; assay type: cell-based; conditions: Mueller Hinton agar, 10^4 to 10^5 cells per spot, incubated overnight at 35° C., lowest concentration that inhibits visible growth
Outline: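 MIC read after overnight 35 °C incubation as lowest drug level preventing visible growth. Inoculum of roughly 10^4–10^5 cells per spot (0.5 McFarland, 1:20 in TSB) applied to Mueller Hinton agar containing serial 2-fold compound dilutions.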

SMILES | MIC [µg/mL] | SA 9218 MIC [µg/mL]
N#Cc1ccc(NC(=O)c2cccc(S(=O)(=O)N3CCC(O)CC3)c2)c(C(=O)O)c1 [PHA-571219] | 32 (≈ 74.5 µM) | –
N#Cc1ccc(NC(=O)c2cccc(S(=O)(=O)N3CCCCCC3)c2)c(C(=O)O)c1 [PHA-571224] | 8 (≈ 18.7 µM) | –
N#Cc1ccc(NC(=O)c2ccc(S(=O)(=O)N3CCC(O)CC3)cc2)c(C(=O)O)c1 [PHA-571231] | > 128 | –
CN(CCC#N)S(=O)(=O)c1ccc(C(=O)Nc2ccc(C#N)cc2C(=O)O)cc1 [PHA-571232] | > 128 | –
CC1CC(C)CN(S(=O)(=O)c2ccc(C(=O)Nc3ccc(C#N)cc3C(=O)O)cc2)C1 (centres unmarked) [PHA-571234] | 8 (≈ 18.1 µM) | –
N#Cc1ccc(NC(=O)c2cccc(S(=O)(=O)N3CCCC4CCCCC43)c2)c(C(=O)O)c1 (centres unmarked) [PHA-571235] | 8 (≈ 17.1 µM) | –
N#Cc1ccc(NC(=O)c2ccc(S(=O)(=O)N3CCC3)cc2)c(C(=O)O)c1 [PHA-571239] | 128 (≈ 332 µM) | –
CC1CCN(S(=O)(=O)c2ccc(C(=O)Nc3ccc(C#N)cc3C(=O)O)cc2)CC1 [PHA-571240] | 16 (≈ 37.4 µM) | –
CC1CCCN(S(=O)(=O)c2ccc(C(=O)Nc3ccc(C#N)cc3C(=O)O)cc2)C1 (centres unmarked) [PHA-571241] | 16 (≈ 37.4 µM) | –
CC1CC(C)CN(S(=O)(=O)c2cccc(C(=O)Nc3ccc(C#N)cc3C(=O)O)c2)C1 (centres unmarked) [PHA-571243] | 4 (≈ 9.06 µM) | –
N#CCCN(Cc1ccccc1)S(=O)(=O)c1ccc(C(=O)Nc2ccc(C#N)cc2C(=O)O)cc1 [PHA-571246] | 32 (≈ 65.5 µM) | –
N#Cc1ccc(NC(=O)c2ccc(S(=O)(=O)N3CCCC4CCCCC43)cc2)c(C(=O)O)c1 (centres unmarked) [PHA-571249] | 16 (≈ 34.2 µM) | –
C=CCN(C1CCCC1)S(=O)(=O)c1ccc(C(=O)Nc2ccc(C#N)cc2C(=O)O)cc1 [PHA-571253] | 16 (≈ 35.3 µM) | –
N#Cc1ccc(NC(=O)c2ccc(S(=O)(=O)N3CCOCC3)cc2)c(C(=O)O)c1 [PHA-571255] | > 128 | –
COCC1CCCN1S(=O)(=O)c1ccc(C(=O)Nc2ccc(C#N)cc2C(=O)O)cc1 (centres unmarked) [PHA-571257] | 64 (≈ 144 µM) | –
N#Cc1ccc(NC(=O)c2cccc(S(=O)(=O)N3CCC(C#N)(c4ccccc4)CC3)c2)c(C(=O)O)c1 [PHA-571262] | 32 (≈ 62.2 µM) | –
CCC1CCCCN1S(=O)(=O)c1cccc(C(=O)Nc2ccc(C#N)cc2C(=O)O)c1 (centres unmarked) [PHA-571263] | 16 (≈ 36.2 µM) | –
CN(C1CCCCC1)S(=O)(=O)c1ccc(C(=O)Nc2ccc(C#N)cc2C(=O)O)cc1 [PHA-571264] | 32 (≈ 72.5 µM) | –
N#Cc1ccc(NC(=O)c2cccc(S(=O)(=O)N3CCN(c4cccc(C(F)(F)F)c4)CC3)c2)c(C(=O)O)c1 [PHA-571267] | 32 (≈ 57.3 µM) | –
O=C1CCC(COc2cccc(C(=O)Nc3ccc(Br)cc3C(=O)O)c2)N1 (centres unmarked) [PHA-571280] | – | >128
O=C1CCC(COc2cccc(C(=O)Nc3ccc(Br)cc3C(=O)O)c2)N1 (centres unmarked) [PHA-571281] | 128 (≈ 295 µM) | –
COc1cc(COc2cccc(C(=O)Nc3ccc(Br)cc3C(=O)O)c2)ccc1[N+](=O)[O-] [PHA-571282] | 16 (≈ 31.9 µM) | –
O=C(Nc1ccc(Br)cc1C(=O)O)c1cccc(OC2CCOC2=O)c1 (centres unmarked) [PHA-571285] | 64 (≈ 152 µM) | –
CC(C)(C)OC(=O)NC(COc1cccc(C(=O)Nc2ccc(Br)cc2C(=O)O)c1)c1ccccc1 (centres unmarked) [PHA-571287] | 2 (≈ 3.6 µM) | –
CCOC(=O)C1CCC(Oc2cccc(C(=O)Nc3ccc(Br)cc3C(=O)O)c2)CC1 (centres unmarked) [PHA-571289] | 32 (≈ 65.3 µM) | –
C=CCC(CC=C)Oc1ccc(C(=O)Nc2ccc(Br)cc2C(=O)O)cc1 [PHA-571292] | 32 (≈ 74.4 µM) | –
N#Cc1ccc(NC(=O)c2cccc(Nc3ccccc3)c2)c(C(=O)O)c1 [PHA-610938, 2-[(3-Anilinobenzoyl)amino]-5-cyanobenzoic acid] | 1 (≈ 2.8 µM) | –
N#Cc1ccc(NC(=O)c2cccc(SCc3ccccc3)c2)c(C(=O)O)c1 [PHA-630368] | 0.5 (≈ 1.29 µM) | –
N#Cc1ccc(NC(=O)c2cccc([S+]([O-])C3CCCC3)c2)c(C(=O)O)c1 (centres unmarked) [PHA-630427] | 4 (≈ 10.5 µM) | –
CC(C)(C)N1C(=O)c2ccc(C(=O)Nc3ccc(C#N)cc3C(=O)O)cc2C1=O [PHA-630726] | 4 (≈ 10.2 µM) | –

The next lines start with the values.

MIC [µg/mL] | SA 9218 MIC [µg/mL] | SMILES
32 (≈ 67 µM) | – | CC(C)N(Cc1ccccc1)S(=O)(=O)c1cccc(C(=O)Nc2ccc(C#N)cc2C(=O)O)c1 [PHA-571216]
64 (≈ 130 µM) | – | CC(C(O)c1ccccc1)N(C)S(=O)(=O)c1cccc(C(=O)Nc2ccc(C#N)cc2C(=O)O)c1 (centres unmarked) [PHA-571226]
– | 32 | CC(C(O)c1ccccc1)N(C)S(=O)(=O)c1ccc(C(=O)Nc2ccc(C#N)cc2C(=O)O)cc1 (centres unmarked) [PHA-571228]
16 (≈ 31.5 µM) | – | N#Cc1ccc(NC(=O)c2cccc(S(=O)(=O)N3CCN(c4ccc(F)cc4)CC3)c2)c(C(=O)O)c1 [PHA-571230]
16 (≈ 36.3 µM) | – | CCCCN(CC#N)S(=O)(=O)c1cccc(C(=O)Nc2ccc(C#N)cc2C(=O)O)c1 [PHA-571237]
128 (≈ 262 µM) | – | N#CCCN(Cc1ccccc1)S(=O)(=O)c1cccc(C(=O)Nc2ccc(C#N)cc2C(=O)O)c1 [PHA-571238]
32 (≈ 64.8 µM) | – | CC(C(O)c1ccccc1)N(C)S(=O)(=O)c1ccc(C(=O)Nc2ccc(C#N)cc2C(=O)O)cc1 (centres unmarked) [PHA-571242]
– | 32 | CC(C(O)c1ccccc1)N(C)S(=O)(=O)c1cccc(C(=O)Nc2ccc(C#N)cc2C(=O)O)c1 (centres unmarked) [PHA-571260]
16 (≈ 34.7 µM) | – | N#Cc1ccc(NC(=O)c2ccc(S(=O)(=O)N3CCc4ccccc4C3)cc2)c(C(=O)O)c1 [PHA-571265]
16 (≈ 34.7 µM) | – | N#Cc1ccc(NC(=O)c2cccc(S(=O)(=O)N3CCc4ccccc4C3)c2)c(C(=O)O)c1 [PHA-571269]
8 (≈ 18.7 µM) | – | CC1CCCN(S(=O)(=O)c2cccc(C(=O)Nc3ccc(C#N)cc3C(=O)O)c2)C1 (centres unmarked) [PHA-571270]
64 (≈ 155 µM) | – | CN(CCC#N)S(=O)(=O)c1cccc(C(=O)Nc2ccc(C#N)cc2C(=O)O)c1 [PHA-571271]
– | 32 | CC(C(O)c1ccccc1)N(C)S(=O)(=O)c1cccc(C(=O)Nc2ccc(C#N)cc2C(=O)O)c1 (centres unmarked) [PHA-571272]
8 (≈ 18.7 µM) | – | CC1CCN(S(=O)(=O)c2cccc(C(=O)Nc3ccc(C#N)cc3C(=O)O)c2)CC1 [PHA-571273]
16 (≈ 33 µM) | – | COC(=O)c1ccc(COc2cccc(C(=O)Nc3ccc(Br)cc3C(=O)O)c2)cc1 [PHA-571283]
4 (≈ 9.41 µM) | – | O=C(Nc1ccc(Cl)cc1C(=O)O)c1cccc(S(=O)(=O)N2CCOCC2)c1 [PHA-571395]
4 (≈ 8.52 µM) | – | O=C(Nc1ccc(Br)cc1C(=O)O)c1cccc(S(=O)(=O)N2CCOCC2)c1 [PHA-571396]
4 (≈ 9.19 µM) | – | O=C(Nc1ccc([N+](=O)[O-])cc1C(=O)O)c1cccc(S(=O)(=O)N2CCOCC2)c1 [PHA-571397]
4 (≈ 7.75 µM) | – | O=C(Nc1ccc(I)cc1C(=O)O)c1cccc(S(=O)(=O)N2CCOCC2)c1 [PHA-571458]
> 128 | – | O=C(Nc1ccc(-c2ccc(C(F)(F)F)cc2)cc1C(=O)O)c1cccc(S(=O)(=O)N2CCOCC2)c1 [PHA-610940]
> 128 | – | COc1ccc(-c2ccc(NC(=O)c3cccc(S(=O)(=O)N4CCOCC4)c3)c(C(=O)O)c2)cc1 [PHA-610941]
> 128 | – | O=C(Nc1ccc(-c2ccccc2)cc1C(=O)O)c1cccc(S(=O)(=O)N2CCOCC2)c1 [PHA-610942]
1 (≈ 2.09 µM) | – | CN(c1ccc(Cl)cc1)S(=O)(=O)c1cccc(C(=O)Nc2ccc(Cl)cc2C(=O)O)c1 [PHA-615551]
0.5 (≈ 1.12 µM) | – | N#Cc1ccc(NC(=O)c2cccc(S(=O)(=O)n3cnc4ccccc43)c2)c(C(=O)O)c1 [PHA-630330]
2 (≈ 4 µM) | – | O=C(Nc1ccc(Br)cc1C(=O)O)c1cccc(S(=O)(=O)n2ccc3cccnc32)c1 [PHA-630331]
> 128 | – | N#Cc1ccc(NC(=O)c2cccc(S(=O)(=O)C3CCCC3)c2)c(C(=O)O)c1 [PHA-630426]
